In patent publication US9486536B2 (Immunomedics, Inc., priority 2013, dated 2016):

Key:
CEACAM5 = molecular target: T1, CEACAM5 (Homo sapiens, UniProt P06731); assay: antibody binding to target antigen after conjugation
T1 sequence (P06731 35-676): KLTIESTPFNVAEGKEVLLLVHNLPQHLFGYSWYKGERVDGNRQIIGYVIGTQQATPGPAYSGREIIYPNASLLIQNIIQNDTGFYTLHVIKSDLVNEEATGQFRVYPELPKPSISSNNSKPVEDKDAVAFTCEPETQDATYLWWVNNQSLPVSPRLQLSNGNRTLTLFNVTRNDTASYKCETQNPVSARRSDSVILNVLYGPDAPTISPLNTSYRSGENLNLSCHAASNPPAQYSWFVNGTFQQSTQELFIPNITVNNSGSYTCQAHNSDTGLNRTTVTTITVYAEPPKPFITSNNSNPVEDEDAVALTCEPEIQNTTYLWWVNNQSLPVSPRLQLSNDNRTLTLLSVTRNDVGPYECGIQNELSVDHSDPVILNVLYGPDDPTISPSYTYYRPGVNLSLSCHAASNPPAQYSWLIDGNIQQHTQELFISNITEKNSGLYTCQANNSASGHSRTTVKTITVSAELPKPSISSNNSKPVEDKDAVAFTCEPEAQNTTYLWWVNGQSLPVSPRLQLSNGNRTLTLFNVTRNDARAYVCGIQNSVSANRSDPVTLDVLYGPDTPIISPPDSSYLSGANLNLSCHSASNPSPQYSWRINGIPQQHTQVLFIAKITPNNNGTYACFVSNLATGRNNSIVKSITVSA
Method: Retention of antibody binding was confirmed by cell binding assays comparing binding of the conjugate to unconjugated antibody (Chari, 2008, Acc Chem Res 41:98-107). The potency of the conjugate was tested in a 4-day MTS assay using appropriate target cells.

[1] = molecular target: DDD of the RII form of PKA; conditions: cited from earlier work
[2] = tested on: Capan-1 human pancreatic adenocarcinoma xenografts; assay: therapy of Capan-1 xenografts in nude mice; type: in vivo; conditions: for therapeutic response (FIG. 2): 2.25 mg/kg protein dose twice weekly×2 weeks, compared with hMN-14 conjugate
Method: FIG. 2. Therapy in nude mice bearing s.c. human tumor xenografts using 2.25 mg/kg protein dose (0.064 mg/kg of drug dose) of MAb-P2PDox conjugates twice weekly×2 weeks in nude mice with Capan-1 human pancreatic adenocarcinoma xenografts (n=5).
Tumors were measured and mice weighed twice a week.
At 63 days after Capan-1 tumor injection (with therapy starting at 1 days post-innoculation), 0 of 10 mice were alive in the saline control, 10 of 10 mice were alive in mice treated twice weekly×2 weeks with 45 μg of hPAM4-P2PDox, 2 of 10 mice were alive in mice treated twice weekly×2 weeks with 45 μg of hA20-P2PDox, 0 of 10 mice were alive in mice treated twice weekly×4 weeks with 250 μg of hPAM4-SN-38, and 0 of 10 mice were alive in mice treated twice weekly×4 weeks with 250 μg of h20-SN-38.

[3] = tested on: NCI-N87 human gastric carcinoma xenografts; assay: therapy of NCI-N87 xenografts in nude mice; type: in vivo; conditions: for therapeutic response (FIG. 3): 2.25 mg/kg protein dose twice weekly×2 weeks, compared with hMN-14 conjugate; for effect on tumors, one treatment cycle: 4×45 μg
Method: FIG. 3A. Therapy in nude mice bearing s.c. human tumor xenografts using 2.25 mg/kg protein dose (0.064 mg/kg of drug dose) of MAb-P2PDox conjugates twice weekly×2 weeks in nude mice (n=7) with NCI-N87 human gastric carcinoma xenografts.
Tumor size was determined by caliper measurements of length (L) and width (W) with tumor volume calculated as (L×W^2)/2. Tumors were measured and mice weighed twice a week. Mice were euthanized if their tumors reached >1 cm^3 in size, lost greater than 15% of their starting body weight, or otherwise became moribund. Statistical analysis for the tumor growth data was based on area under the curve (AUC) and survival time. Profiles of individual tumor growth were obtained through linear curve modeling. An f-test was employed to determine equality of variance between groups prior to statistical analysis of growth curves. A two-tailed t-test was used to assess statistical significance between all the various treatment groups and non-specific controls. For the saline control analysis a one-tailed t-test was used to assess significance. Survival studies were analyzed using Kaplan-Meier plots (log-rank analysis), using the Prism GraphPad Software (v4.03) software package (Advanced Graphics Software, Inc.; Encinitas, Calif.). All doses in preclinical experiments are expressed in antibody amounts. In terms of drug, 100 μg of antibody (5 mg/kg) in a 20-g mouse, for example, carries 1.4 μg-2.8 μg ([…]) of P2PDox equivalent dose when using an ADC with 3-6 drugs/IgG.
Using this dosing regimen, we examined the therapeutic effect of hRS7-P2PDox in 2 human tumor xenograft models, Capan-1 (pancreatic cancer) and NCI-N87 (gastric cancer). Therapy began 7 days after tumor transplantation in nude mice.
Anti-TROP-2 antibody conjugate, hRS7-P2PDox, was evaluated in nude mice bearing NCI-N87 human gastric cancer xenografts by administering a single bolus protein dose of 9 mg/kg, 6.75 mg/kg, 4.5 mg/kg, 2.25 mg/kg, or 1 mg/kg. The therapy was started when the mean tumor volume (mTV) was 0.256 cm^3.
Further in vivo efficacy studies were performed in nude mice implanted with NCI-N87 human gastric cancer xenografts (FIG. 13A-F).
The effect of varying dosage schedule on anti-tumor efficacy was examined (FIG. 14, FIG. 19A-G). The experiment began 9 days after tumor implantation when mean tumor volume for all groups was 0.383 cm^3, and ended on day 93 (84 days after initiation of therapy).

[4] = tested on: Chronic Lymphocytic Leukemia (CLL); assay: treatment of CLL patients; type: in vivo, human
Method: Patients with previously untreated or relapsed CLL receive 4 doses of 70, 100 or 150 mg P2PDox-veltuzumab injected i.v. every two weeks. Only occasional mild to moderate transient injection reactions are seen and no other safety issues are observed, except for neutropenia, which can be controlled by interrupting therapy until improved or administering a G-CSF leukocyte stimulator, as per conventional practice. […] Objective responses are observed at all dose levels of P2PDox-veltuzumab, but with particularly high responses of 30% (mostly partial responses) at the highest dose. All serum samples evaluated for human anti-veltuzumab antibody (HAHA) are negative.

[5] = tested on: HIV-1IIIB/MuLV infected splenocytes; assay: HIV-1/MuLV infected cell challenge in mice; type: in vivo; conditions: doses of 100-200 μg
Method: P4/D10-P2PDox is tested in vitro for its efficacy in eliminating HIV-1-infected cells among non-infected cells and in a mouse model by removing HIV-1/MuLV (murine leukemia virus) infected syngeneic cells from the intraperitoneal cavity.
A human T-cell line, CEM-1B, with a genetically integrated MuLV genome is infected with HIV-1IIIB, which leads to the production of pseudoviruses with the HIV-1 genome and the MuLV envelope (Adang et al., PNAS USA 1999, 96:12749-753; Hinkula et al., Cells Tissues Organs 2004, 177:169-184). These virus supernatants are used to infect splenocytes from C57B1/6×DBA F1 K^b/d mice transgenic for HLA-A201. Isogenic mice are challenged with HIV-1IIIB/MuLV infected splenocytes i.p. and are immediately given conjugated antibodies or free antibodies i.p. Ten days after challenge, mice are sacrificed and peritoneal cells collected. Peritoneal cells are pelleted and added to 1×10^6 HIV susceptible Jurkat T-cells or human PBMC grown in 24-well plates. From these secondary cultures, supernatant is removed and fresh medium added every 3-4 days. The amount of infectious HIV recovered in the supernatant is measured for 3 weeks by p24 ELISA.
To test the efficacy of P4/D10-P2PDox in vivo, mice are given isogeneic HIV/MuLV-infected cells together with conjugates intraperitoneally.

[6] = MTD study of hLL1 conjugates in mice
Method: The MTD of multiple injections, at a schedule of every four days for a total of four injections (q4dx4) was then determined, using protein doses between 25 μg to 150 μg per injection. At these doses, a cumulative dose of between 100 and 600 μg was given to the animals.

[7] = tested on: Capan-1, BxPC-3 and AsPC-1 human pancreatic tumor lines and AGS, NCI-N87 and LS147T human gastric and colonic tumor lines; assay: cytotoxicity of P2PDox-mAb conjugates to target cells; type: cell-based; conditions: not shown
Description: The cytotoxicity of P2PDox-mAb conjugates to target cells was examined. hRS7-P2PDox and hMN-15-P2PDox were cytotoxic to MDA-MB-468, AG S, NCI-N87 and Capan-1 solid tumor cell lines (not shown). hMN-14-P2PDox was cytotoxic to Capan-1, BxPC-3 and AsPC-1 human pancreatic tumor lines and AGS, NCI-N87 and LS147T human gastric and colonic tumor lines (not shown). hLL2-P2PDOx was cytotoxic to Daudi, Raji, Ramos and JVM-3 hematopoietic tumor lines (not shown). IC50 values for the conjugates were in the nanomolar concentration range (not shown).

[8] = tested on: Trop-2-positive human pancreatic adenocarcinoma cell line (BxPC-3); assay: ADCC with PBMCs, effector to target ratio 100:1; type: cell-based; conditions: 33.3 nM
Method: The ADCC activity of various hRS7-ADC conjugates was determined in comparison to hRS7 IgG (FIG. 17). PBMCs were purified from blood purchased from the Blood Center of New Jersey. A Trop-2-positive human pancreatic adenocarcinoma cell line (BxPC-3) was used as the target cell line with an effector to target ratio of 100:1. ADCC mediated by hRS7 IgG was compared to hRS7-Pro-2-PDox, hRS7-CL2A-SN-38, and the reduced and capped hRS7-NEM. All were used at 33.3 nM.

[9] = tested on: metastatic ductal adenocarcinoma of the pancreas; assay: treatment of a patient with metastatic pancreatic cancer; type: in vivo, human
Method: A person with metastatic ductal adenocarcinoma of the pancreas, who has relapsed after prior therapies with FOLFIRINOX followed by Nab-taxol (Abraxane®) plus gemcitabine is given PAM4-P2PDox ADC at a dose of 120 mg every other week for 4 courses, and after a 3-week delay, another course of 2 injections 2 weeks apart are given intravenously.

[10] = twice weekly×2 weeks with 45 μg

For “P2PDox-hMN-24: P2PDox conjugate printed as hMN-24 (anti-CEACAM5)”, the “effect of conjugation on antibody binding” value (CEACAM5) was “lack of effect of conjugation on antibody binding to target antigen”.

In the case of QIEYLAKQIVDNAIQQA [AKAP-IS], the Kd ([1]; read-out: binding constant for DDD) is given as 0.4 nM.

In the case of QIEYVAKQIVDYAIHQA [SuperAKAP-IS], the “selectivity for the RII isoform of PKA compared with the RI isoform” value [1] is given as “five order of magnitude higher selectivity”.

With hA20-P2PDox the “therapeutic response (FIG. 2)” value [2] was “ineffective”, the “mice alive at 63 days after tumor injection” value (“mice alive at 63 days” for short) [2, 10] was 2 of 10 and the “therapeutic response (FIG. 3)” value [3] was “ineffective”. For the same molecule, the “effect on tumors, one treatment cycle” value [3] was “little effect on tumor progression”, the effect on survival ([3]; same dosage schedules (45 μg q4dx4, 90 μg weekly×2, 180 μg single)) was “no effect on survival” and the “objective responses at the highest dose” value ([4]; 150 mg i.v. every two weeks, 4 doses, mostly partial responses) was 30%. The “B-cell and CLL ablation” value ([4]; all dosage levels) was “Rapid B-cell and CLL ablation” and the “human anti-veltuzumab antibody (HAHA) in serum samples” value ([4]; human, in vivo) was “negative”.

With hLL1-P2PDox the “effect on tumors, one treatment cycle” value [3] was “little effect on tumor progression”, the “protection by control conjugates” value [5] was “None of the P2PDox-conjugated control antibodies (hLL1 or hRS7) provide any protection” and the “signs of toxicity (weight loss)” value ([6]; 25 μg i.v. q4dx4) was “no signs of toxicity”. The “potency compared with 2-PDox conjugate of hLL1 in MTD study” value ([6]; not shown) was “much more potent”, the “MTD for fractionated dosing” value ([6]; protein dose, every 4 days for 2 weeks (q4dx4), after analysis and repetition of the experiment) was 45 µg and the “MTD for multiple injections” value ([6]; q4dx4, from this experiment) was 25 µg. The “dose tolerated when administered as a single injection” value ([6]; single injection (not shown)) was 100 µg.

With hMN-14-P2PDox the “effect on tumors, one treatment cycle” value [3] was “little effect on tumor progression” and the cytotoxicity [7] was “cytotoxic”.

With “hRS7 IgG: unconjugated humanized anti-TROP-2 antibody” the “specific lysis (ADCC)” value [8] was 8.5%.

In the case of hRS7-SN-38 [reference compound], the “therapeutic response (FIG. 2)” value [2] is reported as “better therapeutic responses” and the “therapeutic response (FIG. 3)” value [3] is reported as “better therapeutic responses”.

B1: hPAM4-P2PDox (conjugate, chains of the INN, looked up)
VH: QVQLQQSGAEVKKPGASVKVSCEASGYTFPSYVLHWVKQAPGQGLEWIGYINPYNDGTQYNEKFKGKATLTRDTSINTAYMELSRLRSDDTAVYYCARGFGGSYGFAYWGQGTLVTVSS
VL: DIQLTQSPSSLSASVGDRVTMTCSASSSVSSSYLYWYQQKPGKAPKLWIYSTSNLASGVPARFSGSGSGTDFTLTISSLQPEDSASYFCHQWNRYPYTFGGGTRLEIK
modifications: P2PDox (pro-2-pyrrolinodoxorubicin) payload
For B1, the “inhibition of tumor growth compared with the SN-38 conjugate of the same antibody” value ([2]; not shown) was “more effective at inhibiting growth”, the “mice alive at 63 days” value [2, 10] was 10 of 10 and the “shrinkage of the sum of the 3 target lesions in the liver” value ([9]; 120 mg every other week, CT at 8 weeks) was 18%. For the same molecule, the “reduction of CA19-9 blood titer” value ([9]; baseline value of 12,400) was 55% and the “hematological toxicity after the first course” value ([9]; recovers before the second course) was “Grade 3 neutropenia”.

B2: hPAM4-SN-38: hPAM4 antibody conjugated to SN-38 (conjugate, chains of the INN, looked up)
VH: B1 VH
VL: B1 VL
modifications: SN-38 conjugate
With B2 the “mice alive at 63 days” value ([2]; twice weekly×4 weeks with 250 μg) was 0 of 10.
